Reference: patent US3948885A, “5-Hydroxyl-1,2,3-triazole-4-carboxamide nucleoside” (ICN Pharmaceuticals, Inc., priority 1973, dated 1976)
“Also recorded” adds a separate entry of the source. Where two headings read alike, the source gives them in different places.

What was measured:
[1] = literature; cited from earlier work
[2] = system: measles virus; assay: Plaque inhibition (measles virus); format: cell-based; conditions: for inhibition at 20 µg/mL / inhibition at 100 µg/mL / inhibition at 500 µg/mL: Measles morbillivirus, 96 h, VERO cells, 4 days at 37°C, >=50% definite, 20 to 50 moderate, <20% little or no antiviral activity; for inhibition at 20 µg/mL: read-out: Percent Plaque Inhibition at 20 µg/mL; for inhibition at 100 µg/mL: read-out: Percent Plaque Inhibition at 100 µg/mL; for inhibition at 500 µg/mL: read-out: Percent Plaque Inhibition at 500 µg/mL
[3] = system: Type 1 herpes simplex; assay: In vitro activity against Type 1 herpes simplex, virus rating (VR) method of Sidwell et al; format: cell-based; conditions: for virus rating (VR): method of Sidwell et al. Appl. Microbiol. 22, 797 (1971)
[4] = D. C. Delong et al, 1971; cited from earlier work

Structure (SMILES) | antiviral activity (in words) [1] | inhibition at 20 µg/mL [2] [%] | inhibition at 100 µg/mL [2] [%] | inhibition at 500 µg/mL [2] [%] | activity against measles virus (in words) ([2]; in vitro) | activity against Type 1 herpes simplex (in words) [3] | virus rating (VR) [3] | activity against Type 1 herpes simplex (in words) ([3]; Sodium Salt Monohydrate) | toxicity associated with employment in vivo (in words) [4]
NC(=O)c1ncn([C@@H]2O[C@H](CO)[C@@H](O)[C@H]2O)n1 [1-β-D-ribofuranosyl-1,2,4-triazole-3-carboxamide] | substantial range of antiviral activity |  |  |  |  |  |  |  | 
NC(=O)c1nnn([C@@H]2O[C@H](CO)[C@@H](O)[C@H]2O)c1O [Compound 1, 5-Hydroxy-1-β-D-ribofuranosyl-1,2,3-triazole-4-carboxamide] |  | 33 | 84 | 100 | exhibited in vitro activity | exhibited in vitro activity; also recorded: active | 0.6 |  | 
NC(=O)c1nn([C@@H]2O[C@H](CO)[C@@H](O)[C@H]2O)nc1O [Compound 2, 5-Hydroxy-2-β-D-ribofuranosyl-1,2,3-triazole-4-carboxamide] |  | 0 | 0 | 5 |  |  |  |  | 
NC(=O)c1[nH]nnc1O [Compound 3, 4-Hydroxy-1,2,3-triazole-5-carboxamide] |  | 33 | 60 | 89 |  | active | 0.6 |  | 
O.[NH-]C(=O)c1[nH]nnc1O.[Na+] [Compound 4, 4-Hydroxy-1,2,3-triazole-5-carboxamide Sodium Salt Monohydrate] |  |  |  |  |  |  | 0.5 | active | 
NC(=O)c1[nH]nc([C@@H]2O[C@H](CO)[C@@H](O)[C@H]2O)c1O [pyrazomycin] | exhibits a substantial range of antiviral activity |  |  |  |  |  |  |  | a degree of toxicity
